Laboratory results: patent US7566712B2, “Biaryl piperazinyl-pyridine analogues” (Neurogen Corporation, priority 2003, dated 2009)
pIC50: −log10 of the molar value.

What follows are compounds tested against T1, human capsaicin receptor (Homo sapiens, UniProt Q8NER1) (assay: Calcium mobilization assay, determination of antagonist activity (Example 6)). Conditions: determined as described in Example 6 (calcium mobilization, antagonist activity); Table II.
T1 construct: pBK-CMV expression construct encoding the full length human capsaicin receptor; expressed in transfected cells
Type: cell-based
Method in brief: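 Antagonism measured as inhibition of capsaicin-evoked (final concentration = EC50, from an 8-point 1 nM–3 μM curve) Fluo-3 calcium signal in stable hVR1-HEK293 cells. Test compounds at 1–5 μM final, 0.5–6 h dark preincubation at room temperature. IC50 = concentration giving 50% reduction versus agonist-only response.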

T1 sequence (Q8NER1 whole entry): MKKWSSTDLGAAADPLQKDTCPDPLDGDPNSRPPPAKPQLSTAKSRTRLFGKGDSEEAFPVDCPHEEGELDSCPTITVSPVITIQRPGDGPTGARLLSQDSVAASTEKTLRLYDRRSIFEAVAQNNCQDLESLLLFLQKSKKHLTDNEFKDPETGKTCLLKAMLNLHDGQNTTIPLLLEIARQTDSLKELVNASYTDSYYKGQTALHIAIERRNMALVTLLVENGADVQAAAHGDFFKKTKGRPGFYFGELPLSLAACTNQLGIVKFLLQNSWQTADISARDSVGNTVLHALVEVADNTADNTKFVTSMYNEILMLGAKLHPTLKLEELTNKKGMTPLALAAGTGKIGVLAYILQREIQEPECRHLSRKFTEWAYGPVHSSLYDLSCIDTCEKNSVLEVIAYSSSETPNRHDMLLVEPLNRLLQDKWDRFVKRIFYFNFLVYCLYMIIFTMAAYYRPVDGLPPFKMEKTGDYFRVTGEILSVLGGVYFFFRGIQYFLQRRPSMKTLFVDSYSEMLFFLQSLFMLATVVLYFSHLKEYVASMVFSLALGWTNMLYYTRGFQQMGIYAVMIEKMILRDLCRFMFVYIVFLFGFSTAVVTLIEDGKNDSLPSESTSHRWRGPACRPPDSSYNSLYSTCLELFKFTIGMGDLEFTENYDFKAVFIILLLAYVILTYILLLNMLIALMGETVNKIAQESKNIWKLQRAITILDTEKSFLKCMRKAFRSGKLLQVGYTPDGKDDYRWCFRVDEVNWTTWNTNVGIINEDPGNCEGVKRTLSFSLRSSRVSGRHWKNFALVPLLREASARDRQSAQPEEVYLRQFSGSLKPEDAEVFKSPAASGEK

pIC50, ≥ 6.00:
Fc1ccc(-c2cc(N3CCN(c4ncccc4C(F)(F)F)CC3)nc(SCc3ccccc3)n2)cc1Cl [Example 649, 2-(benzylthio)-4-(3-chloro-4-fluorophenyl)-6-{4-[3-(trifluoromethyl)pyridin-2-yl]piperazin-1-yl}pyrimidine]
O=S(=O)(Cc1ccccc1)c1nc(-c2ccc(F)c(Cl)c2)cc(N2CCN(c3ncccc3C(F)(F)F)CC2)n1 [Example 650, 2-(benzylsulfonyl)-4-(3-chloro-4-fluorophenyl)-6-{4-[3-(trifluoromethyl)pyridin-2-yl]piperazin-1-yl}pyrimidine]
CC(C)c1nccn1-c1nc(-c2ccc(F)c(Cl)c2)cc(N2CCN(c3ncccc3C(F)(F)F)CC2)n1 [Example 651, 4-(3-chloro-4-fluorophenyl)-2-(2-isopropyl-1H-imidazo-1-yl)-6-{4-[3-(trifluoromethyl)pyridin-2-yl]piperazin-1-yl}pyrimidine]
CN(C)C(=O)CN1CCN(c2nc(-c3ccc(F)c(Cl)c3)cc(N3CCN(c4ncccc4C(F)(F)F)CC3)n2)CC1 [Example 652, 2-[4-(4-(3-chloro-4-fluorophenyl)-6-{4-[3-(trifluoromethyl)pyridin-2 yl]piperazin-1-yl}pyrimidin-2-yl)piperazin-1-yl]-N,N-dimethylacetamide]
CNC(=O)C1CCN(c2nc(-c3ccc(F)c(Cl)c3)cc(N3CCN(c4ncccc4C(F)(F)F)CC3)n2)CC1 [Example 653, 1-(4-(3-chloro-4-fluorophenyl)-6-{4-[3-(trifluoromethyl)pyridin-2-yl]piperazin-1-yl}pyrimidin-2-yl)-N-methylpiperidine-4-carboxamide]
O=C1CN(c2nc(-c3ccc(F)c(Cl)c3)cc(N3CCN(c4ncccc4C(F)(F)F)CC3)n2)CCN1 [Example 654, 4-(4-(3-chloro-4-fluorophenyl)-6-{4-[3-(trifluoromethyl)pyridin-2-yl]piperazin-1-yl}pyrimidin-2-yl)piperazin-2-one]
CS(=O)(=O)C1CCN(c2nc(-c3ccc(F)c(Cl)c3)cc(N3CCN(c4ncccc4C(F)(F)F)CC3)n2)CC1 [Example 655, 4-(3-chloro-4-fluorophenyl)-2-[4-(methylsulfonyl)piperidin-1-yl]-6-{4-[3-(trifluoromethyl)pyridin-2-yl]piperazin-1-yl}pyrimidine]
Fc1ccc(-c2cc(N3CCN(c4ncccc4C(F)(F)F)CC3)nc(-c3ncc[nH]3)n2)cc1Cl [Example 656, 4-(3-chloro-4-fluorophenyl)-2-(1H-imidazol-2-yl)-6-{4-[3-(trifluoromethyl)pyridin-2-yl]piperazin-1-yl}pyrimidine]
CC(=N)N1CCN(c2nc(-c3ccc(F)c(C)c3)cc(N3CCN(c4ncccc4C(F)(F)F)CC3)n2)CC1 [Example 657, 1-[4-(4-(4-fluoro-3-methylphenyl)-6-{4-[3-(trifluoromethyl)pyridin-2-yl]piperazin-1-yl}pyrimidin-2-yl)piperazin-1-yl]ethanimine]
CCC(CC)Oc1nc(-c2ccc(F)c(Cl)c2)cc(N2CCN(c3ncccc3C(F)(F)F)CC2)n1 [Example 658, 4-(3-chloro-4-fluorophenyl)-2-(1-ethylpropoxy)-6-{4-[3-(trifluoromethyl)pyridin-2-yl]piperazin-1-yl}pyrimidine]
O=C1CN(c2cc(-c3ccc(F)c(Cl)c3)nc(N3CCOCC3)n2)CCN1c1ccccn1 [Example 659, 4-[6-(3-chloro-4-fluorophenyl)-2-morpholin-4-ylpyrimidin-4-yl]-1-pyridin-2-ylpiperazin-2-one]
CC(C)N1CC=C(c2nc(-c3ccc(F)c(Cl)c3)cc(N3CCN(c4ncccc4C(F)(F)F)CC3)n2)CC1 [Example 660, 4-(3-chloro-4-fluorophenyl)-2-(1-isopropyl-1,2,3,6-tetrahydropyridin-4-yl)-6-{4-[3-(trifluoromethyl)pyridin-2-yl]piperazin-1-yl}pyrimidine]
Cc1cccnc1N1CCN(c2cc(-c3ccc(F)c(Cl)c3)nc(N3CCOCC3)n2)CC1=O [Example 661, 4-[6-(3-chloro-4-fluorophenyl)-2-morpholin-4-ylpyrimidin-4-yl]-1-(3-methylpyridin-2-yl)piperazin-2-one]
Cn1ccnc1-c1nc(-c2ccc(F)c(Cl)c2)cc(N2CCN(c3ncccc3C(F)(F)F)CC2)n1 [Example 662, 4-(3-chloro-4-fluorophenyl)-2-(1-methyl-1H-imidazol-2-yl)-6-{4-[3-(trifluoromethyl)pyridin-2-yl]piperazin-1-yl}pyrimidine]
CC(=N)N1CCN(c2nc(-c3ccc(F)c(Cl)c3)cc(N3CCN(c4ncccc4C(F)(F)F)CC3)n2)CC1 [Example 663, 1-[4-(4-(3-chloro-4-fluorophenyl)-6-{4-[3-(trifluoromethyl)pyridin-2-yl]piperazin-1-yl}pyrimidin-2-yl)piperazin-1-yl]ethanimine]
Fc1ccc(-c2cc(N3CCN(c4ncccc4C(F)(F)F)CC3)nc(N3CCC[C@H]3CN3CCCC3)n2)cc1Cl [Example 664, 4-(3-chloro-4-fluorophenyl)-2-[(2S)-2-(pyrrolidin-1-ylmethyl)pyrrolidin-1-yl]-6-{4-[3-(trifluoromethyl)pyridin-2-yl]piperazin-1-yl}pyrimidine]
Fc1ccc(-c2cc(N3CCN(c4ncccc4C(F)(F)F)CC3)nc(N3CCC(CCN4CCCC4)CC3)n2)cc1Cl [Example 665, 4-(3-chloro-4-fluorophenyl)-2-[4-(2-pyrrolidin-1-ylethyl)piperidin-1-yl]-6-{4-[3-(trifluoromethyl)pyridin-2-yl]piperazin-1-yl}pyrimidine]
Fc1ccc(-c2cc(N3CCN(c4ncccc4C(F)(F)F)CC3)nc(N3CCC(N4CCCC4)CC3)n2)cc1Cl [Example 666, 4-(3-chloro-4-fluorophenyl)-2-(4-pyrrolidin-1-ylpiperidin-1-yl)-6-{4-[3-(trifluoromethyl)pyridin-2-yl]piperazin-1-yl}pyrimidine]
CCN1CCN(c2nc(-c3ccc(F)c(C)c3)cc(N3CCN(c4ncccc4C(F)(F)F)CC3)n2)CC1 [Example 667, 2-(4-ethylpiperazin-1-yl)-4-(4-fluoro-3-methylphenyl)-6-{4-[3-(trifluoromethyl)pyridin-2-yl]piperazin-1-yl}pyrimidine]
O=C1CCCN1c1nc(-c2ccc(F)c(Cl)c2)cc(N2CCN(c3ncccc3C(F)(F)F)CC2)n1 [Example 668, 1-(4-(3-chloro-4-fluorophenyl)-6-{4-[3-(trifluoromethyl)pyridin-2-yl]piperazin-1-yl}pyrimidin-2-yl)pyrrolidin-2-one]
CC1CCC(C)N1c1nc(-c2ccc(F)c(Cl)c2)cc(N2CCN(c3ncccc3C(F)(F)F)CC2)n1 (centres unmarked) [Example 669, 4-(3-chloro-4-fluorophenyl)-2-(2,5-dimethylpyrrolidin-1-yl)-6-{4-[3-(trifluoromethyl)pyridin-2-yl]piperazin-1-yl}pyrimidine]
[O-][n+]1ccc(-c2nc(-c3ccc(F)c(Cl)c3)cc(N3CCN(c4ncccc4C(F)(F)F)CC3)n2)cc1 [Example 670]
CC(=O)c1nc(-c2ccc(F)c(Cl)c2)cc(N2CCN(c3ncccc3C(F)(F)F)CC2)n1 [Example 671, 1-(4-(3-chloro-4-fluorophenyl)-6-{4-[3-(trifluoromethyl)pyridin-2-yl]piperazin-1-yl}pyrimidin-2-yl)ethanone]
